Assay results published in ChEMBL document CHEMBL3137667, “[Drug-induced liver injury; fourteenth updated edition of the bibliographic database of liver injuries and related drugs]” (Gastroenterol Clin Biol, 2004).

Columns and labels:
[1] = Highest frequency of acute liver toxicity observed during clinical trials, expressed as a percentage. [column '% AIGUE' in source]; details: human
[2] = human
[3] = human; remark: listed apart in the source
[4] = human, serum
[5] = human; remark: listed apart in the source
[6] = human, serum, 4383 h
[7] = human; remark: listed apart in the source
[8] = human; remark: listed apart in the source
[9] = human; remark: listed apart in the source
[10] = human, serum; remark: listed apart in the source
[11] = Highest frequency of moderate liver toxicity observed during clinical trials, expressed as a percentage. [column '% BIOL' in source]; details: human
[12] = human; remark: listed apart in the source
[13] = human; remark: listed apart in the source
[14] = human; remark: listed apart in the source
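Throughout, for Hepatotoxicity (association with vascular disease): count of indexed literature references reporting vascular liver injury in humans, e.g. peliosis hepatitis, hepatic veno-occlusive disease or Budd-Chiari syndrome.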
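Throughout, for Hepatotoxicity (benign tumour): value is a count of indexed literature references citing a benign tumour confirmed by histopathology.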
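Throughout, for Hepatotoxicity (choleostasis): human cholestatic liver injury, shown by histopathology or by peak ALT or AST elevation over alkaline phosphatase ratio below 2, value counts indexed literature reports.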
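Throughout, for Hepatotoxicity (chronic liver disease): chronic liver injury confirmed by histopathology or persistently raised serum aminotransferase activity beyond 6 months, value given as the count of indexed literature references.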
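Throughout, for Hepatotoxicity (cirrhosis): value is a count of indexed literature references reporting cirrhosis confirmed by histopathology.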
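Throughout, for Hepatotoxicity (cytolytic): human cytolytic liver injury, shown by histopathology or by a ratio above 5 of peak ALT or AST elevation to alkaline phosphatase elevation, value counts indexed references.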
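Throughout, for Hepatotoxicity (granulomatous hepatitis): value is a count of indexed literature references reporting granulomatous liver disease confirmed by histopathology.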
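Throughout, for Hepatotoxicity (malignant tumour): malignant tumour confirmed by histopathology, value gives the count of indexed literature references reporting it.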
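Throughout, for Hepatotoxicity (severe hepatitis): human clinical data: severe hepatitis, meaning potentially life-threatening liver failure or clinically observed cases, the value counts how many indexed literature references report it.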
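Throughout, for Hepatotoxicity (steatosis): steatosis confirmed by histopathology, value is the count of indexed references.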

Row | Compound | Hepatotoxicity (acute) [1] [%] | Hepatotoxicity (benign tumour) [2] | Hepatotoxicity (cirrhosis) [3] | Hepatotoxicity (moderate) [4] | Hepatotoxicity (cytolytic) [5] | Hepatotoxicity (chronic liver disease) [6] | Hepatotoxicity (steatosis) [7] | Hepatotoxicity (severe hepatitis) [8] | Hepatotoxicity (malignant tumour) [9] | Hepatotoxicity (acute) [10] | Hepatotoxicity (moderate) [11] [%] | Hepatotoxicity (granulomatous hepatitis) [12] | Hepatotoxicity (association with vascular disease) [13] | Hepatotoxicity (choleostasis) [14]
1 | CC(C)Nc1cccnc1N1CCN(C(=O)c2cc3cc(NS(C)(=O)=O)ccc3[nH]2)CC1 [DELAVIRDINE] | 0 | 0 | 0 | 2 | 0 | 0 | 0 | 0 | 0 | 0 | 7.1 | 0 | 0 | 0
2 | C=C(OC)C(=O)Nc1cc(OC)c(OC)cc1C(=O)O[C@H]1C[C@H](O[C@@H]2C(=O)C(NC(=O)OC)=C3/C(=C\CSSSC)[C@]2(O)C#C/C=C\C#C[C@@H]3O[C@@H]2O[C@H](C)[C@@H](NO[C@H]3C[C@H](O)[C@H](SC)[C@@H](C)O3)[C@H](O)[C@H]2O[C@H]2C[C@H](OC)[C@@H](NC(C)C)CO2)O[C@@H](C)[C@H]1O [ESPERAMICIN A1] | 0 | 0 | 0 | 1 | 0 | 0 | 0 | 0 | 0 | 0 | 10.7 | 0 | 0 | 0
3 | CNC1(c2ccccc2Cl)CCCCC1=O (configuration not stated) [KETAMINE] | 0 | 0 | 0 | 2 | 0 | 0 | 0 | 0 | 0 | 0 | 23.5 | 0 | 0 | 0
4 | CO[C@@]1(NC(=O)C(C(=O)[O-])c2ccc(O)cc2)C(=O)N2C(C(=O)[O-])=C(CSc3nnnn3C)CO[C@@H]21.[Na+].[Na+] (some centres not stated) [MOXALACTAM DISODIUM] | 3.3 | 0 | 0 | 13 | 0 | 0 | 0 | 0 | 0 | 1 | 36.5 | 0 | 0 | 1
5 | Cc1c(N)nc([C@@H](CC(N)=O)NC[C@@H](N)C(N)=O)nc1C(=O)N[C@@H](C(=O)N[C@@H](C)[C@H](O)[C@@H](C)C(=O)N[C@H](C(=O)NCCc1nc(-c2nc(C(=O)NCCCN(C)CCCN(Cc3ccc(OCc4ccccc4)c(OCc4ccccc4)c3)Cc3ccc(OCc4ccccc4)c(OCc4ccccc4)c3)cs2)cs1)[C@@H](C)O)C(O[C@H]1O[C@@H](CO)[C@H](O)[C@@H](O)[C@H]1O[C@H]1O[C@@H](CO)[C@@H](O)[C@H](OC(N)=O)[C@@H]1O)c1c[nH]cn1 (some centres not stated) | 0 | 0 | 0 | 1 | 0 | 0 | 0 | 0 | 0 | 0 | 23.5 | 0 | 0 | 0
6 | CN[C@@H]1[C@@H](O)[C@@H](O[C@@H]2[C@@H](O)[C@H](O[C@H]3OC(CN)=CC[C@H]3N)[C@@H](N)C[C@H]2N)OC[C@]1(C)O [SISOMICIN] | 0 | 0 | 0 | 2 | 0 | 0 | 0 | 0 | 0 | 0 | 5.7 | 0 | 0 | 0
7 | COc1ccc(-n2nc(CCC(=O)N(C)O)cc2-c2ccc(Cl)cc2)cc1 [TEPOXALIN] | 0 | 0 | 0 | 1 | 0 | 0 | 0 | 0 | 0 | 0 | 2.5 | 0 | 0 | 0
8 | CC(OC(=O)OC1CCCCC1)OC(=O)C1=C(CSc2nnnn2CCN(C)C)CS[C@@H]2[C@H](NC(=O)Cc3csc(N)n3)C(=O)N12 (some centres not stated) | 0 | 0 | 0 | 25 | 0 | 0 | 0 | 0 | 0 | 0 | 28.6 | 0 | 0 | 0
9 | CC/C=C(\C(=O)N[C@@H]1C(=O)N2C(C(=O)OCOC(=O)C(C)(C)C)=C(COC(N)=O)CS[C@H]12)c1csc(N)n1 | 0 | 0 | 0 | 53 | 0 | 0 | 0 | 0 | 0 | 0 | 33.3 | 0 | 0 | 0
10 | CN1CCC(=C2c3ccccc3CC(=O)c3sccc32)CC1 [KETOTIFEN] | 0 | 0 | 0 | 0 | 0 | 0 | 0 | 0 | 0 | 1 | 0 | 0 | 0 | 0
11 | NC(=O)N1C(=O)/C(=C(\O)c2cccs2)c2cc(Cl)ccc21 [TENIDAP] | 0.8 | 0 | 0 | 3 | 1 | 0 | 0 | 0 | 0 | 2 | 18.8 | 0 | 0 | 1
12 | O=C(O)CN1C(=O)c2cccc3cccc(c23)C1=O [ALRESTATIN] | 0 | 0 | 0 | 2 | 0 | 0 | 0 | 0 | 0 | 0 | 11.1 | 0 | 0 | 0
13 | CCCCC(C)(C)[C@H](O)/C=C/[C@H]1[C@H](C)CC(=O)[C@@H]1C/C=C\CCCC(=O)O [TRIMOPROSTIL] | 0 | 0 | 0 | 1 | 0 | 0 | 0 | 0 | 0 | 0 | 0 | 0 | 0 | 0
